Laboratory results as given in patent US10683282B2, “Multi-substituted pyrimidine derivatives with excellent kinase inhibitory activities” (KOREA INSTITUTE OF SCIENCE AND TECHNOLOGY, priority 2018, dated 2020).
Read-outs that look alike come from different tables or passages of the source.

What was measured:
K-562 cell line = K-562 cell line activity; format: cell-based; settings: Homo sapiens, K562
Ba/F3 parental = Ba/F3 parental growth inhibition; format: cell-based; settings: Mus musculus, BaF3; Ba/F3 parental cells
FLT3 = target: T1, FLT3 (Homo sapiens, UniProt P36888); test: Kinase screening, HotSpot assay (Reaction Biology); format: biochemical
T1 construct: purchased Reaction Biology Corporation
T1 sequence (P36888 27-993): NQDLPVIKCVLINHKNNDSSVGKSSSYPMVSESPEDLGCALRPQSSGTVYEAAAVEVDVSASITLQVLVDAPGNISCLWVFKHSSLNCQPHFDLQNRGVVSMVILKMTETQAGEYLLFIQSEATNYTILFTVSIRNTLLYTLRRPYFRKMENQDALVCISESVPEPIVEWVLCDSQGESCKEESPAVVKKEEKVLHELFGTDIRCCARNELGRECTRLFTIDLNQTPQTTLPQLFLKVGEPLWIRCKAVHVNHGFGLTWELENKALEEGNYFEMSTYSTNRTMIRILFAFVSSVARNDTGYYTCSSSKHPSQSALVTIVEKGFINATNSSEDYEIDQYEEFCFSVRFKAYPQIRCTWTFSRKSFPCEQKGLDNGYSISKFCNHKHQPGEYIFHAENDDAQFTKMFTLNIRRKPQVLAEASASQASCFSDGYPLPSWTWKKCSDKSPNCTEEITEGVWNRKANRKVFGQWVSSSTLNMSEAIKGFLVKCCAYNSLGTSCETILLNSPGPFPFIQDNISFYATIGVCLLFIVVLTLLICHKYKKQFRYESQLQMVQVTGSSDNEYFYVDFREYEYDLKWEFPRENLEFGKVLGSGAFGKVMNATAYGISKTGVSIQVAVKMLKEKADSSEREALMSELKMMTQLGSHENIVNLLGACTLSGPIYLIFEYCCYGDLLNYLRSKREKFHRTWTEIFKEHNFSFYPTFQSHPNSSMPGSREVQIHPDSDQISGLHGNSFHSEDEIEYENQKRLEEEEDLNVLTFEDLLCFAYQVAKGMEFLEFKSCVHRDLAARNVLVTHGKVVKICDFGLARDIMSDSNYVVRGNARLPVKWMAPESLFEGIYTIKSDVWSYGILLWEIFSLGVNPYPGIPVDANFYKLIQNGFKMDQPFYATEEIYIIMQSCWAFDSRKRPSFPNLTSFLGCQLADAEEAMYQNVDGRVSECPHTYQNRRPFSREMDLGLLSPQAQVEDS
Description: Kinase screening was performed using a “HotSpot” assay platform method by Reaction Biology Corporation. The reaction buffer used herein contained 20 mM HEPES (pH 7.5), 10 mM MgCl2, 1 mM EGTA, 0.02% Brij35, 0.02 mg/mL BSA, 0.1 mM Na3VO4, 2 mM DTT and 1% DMSO. The required cofactors were added in accordance with the kinase reaction. Freshly made buffer and cofactors were added at a concentration of 20 μM during the selected enzyme reaction. A solution of the test compound in dimethylsulfoxide (DMSO) was added at a suitable concentration to this solution.

MV-4-11 cells = test: MV-4-11 cell screening (viable cells by ATP luminescence); format: cell-based; settings: Homo sapiens, MV4-11, 72 hours incubation, read-out: MV-4-11 cell line (IC50)
Description: A control compound was a 1 mM Staurosporine solution in DMSO.
25 μL of culture media containing 2,000 MV-4-11 cells were added and incubated at 37° C. in the presence of 5% CO2 for 72 hours. Then, the culture solution was mixed in an orbital shaker for 2 minutes and incubated at room temperature for 15 minutes. […] IC50 values are measured using the GraphPad Prism 4 program in accordance with the sigmoidal dose-response equation.

Ba/F3 FLT3-ITD = Ba/F3 FLT3-ITD growth inhibition; format: cell-based; settings: Ba/F3 FLT3-ITD cells
JAK1 = target: T2, JAK1 (Homo sapiens, UniProt P23458); test: Kinase screening, HotSpot assay (Reaction Biology); format: biochemical
T2 construct: purchased Reaction Biology Corporation
Description: (§1) Kinase screening was performed using a “HotSpot” assay platform method by Reaction Biology Corporation. The reaction buffer used herein contained 20 mM HEPES (pH 7.5), 10 mM MgCl2, 1 mM EGTA, 0.02% Brij35, 0.02 mg/mL BSA, 0.1 mM Na3VO4, 2 mM DTT and 1% DMSO. The required cofactors were added in accordance with the kinase reaction. Freshly made buffer and cofactors were added at a concentration of 20 μM during the selected enzyme reaction. A solution of the test compound in dimethylsulfoxide (DMSO) was added at a suitable concentration to this solution. In order to initiate reaction, […] (specific activity […]) was added and incubated at room temperature for 2 hours. The test compound was screened at a starting concentration of 20 μM in a 10-dose IC50 mode. IC50 of Staurosporine used as a control drug was obtained at a starting concentration of 20 μM in a 10-dose IC50 mode.

SIK2 = target: T3, SIK2 (Homo sapiens, UniProt Q9H0K1); test: Kinase screening, HotSpot assay (Reaction Biology); format: biochemical
T3 construct: purchased Reaction Biology Corporation
Description: as §1

c-MER = target: T4, c-MER (Homo sapiens, UniProt Q12866); test: Kinase screening, HotSpot assay (Reaction Biology); format: biochemical
T4 construct: purchased Reaction Biology Corporation
Description: as §1

RET = target: T5, RET (Homo sapiens, UniProt P07949); test: Kinase screening, HotSpot assay (Reaction Biology); format: biochemical
T5 construct: purchased Reaction Biology Corporation
Description: as §1

JAK3 = target: T6, JAK3 (Homo sapiens, UniProt P52333); test: Kinase screening, HotSpot assay (Reaction Biology); format: biochemical
T6 construct: purchased Reaction Biology Corporation
Description: as §1

TYRO3/SKY = target: T7, TYRO3/SKY (Homo sapiens, UniProt Q06418); test: Kinase screening, HotSpot assay (Reaction Biology); format: biochemical
T7 construct: purchased Reaction Biology Corporation
Description: as §1

LRRK2 = target: T8, LRRK2 (Homo sapiens, UniProt Q5S007); test: Kinase screening, HotSpot assay (Reaction Biology); format: biochemical
T8 construct: purchased Reaction Biology Corporation
Description: as §1

ARK5/NUAK1 [1] = target: T9, ARK5/NUAK1 (Homo sapiens, UniProt O60285); test: Kinase screening, HotSpot assay (Reaction Biology); format: biochemical
T9 construct: purchased Reaction Biology Corporation
T9 sequence (O60285 1-661): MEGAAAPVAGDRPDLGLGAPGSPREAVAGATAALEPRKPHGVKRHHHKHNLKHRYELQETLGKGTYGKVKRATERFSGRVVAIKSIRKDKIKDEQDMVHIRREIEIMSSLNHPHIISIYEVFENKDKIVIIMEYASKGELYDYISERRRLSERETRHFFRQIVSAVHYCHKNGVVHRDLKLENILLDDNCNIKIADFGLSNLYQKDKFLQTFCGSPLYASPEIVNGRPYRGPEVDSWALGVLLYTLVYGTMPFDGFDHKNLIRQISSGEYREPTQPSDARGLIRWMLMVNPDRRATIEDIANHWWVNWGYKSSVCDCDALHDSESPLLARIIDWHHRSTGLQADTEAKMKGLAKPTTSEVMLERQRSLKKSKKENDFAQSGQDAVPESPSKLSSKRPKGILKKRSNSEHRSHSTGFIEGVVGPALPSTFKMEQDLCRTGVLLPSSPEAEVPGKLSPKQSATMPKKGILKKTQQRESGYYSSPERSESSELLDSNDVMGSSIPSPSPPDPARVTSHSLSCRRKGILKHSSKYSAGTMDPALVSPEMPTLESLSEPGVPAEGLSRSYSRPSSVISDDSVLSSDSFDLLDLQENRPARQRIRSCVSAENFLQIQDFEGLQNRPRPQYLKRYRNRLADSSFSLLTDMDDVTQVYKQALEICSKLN
Description: as §1

JAK2(V617F) = target: T10, JAK2(V617F) (Homo sapiens, UniProt O60674, V617F); test: Kinase screening, HotSpot assay (Reaction Biology); format: biochemical
T10 construct: purchased Reaction Biology Corporation
Description: as §1

ACK1 = target: T11, ACK1 (Homo sapiens, UniProt Q07912); test: Kinase screening, HotSpot assay (Reaction Biology); format: biochemical
T11 construct: purchased Reaction Biology Corporation
Description: as §1

PKCmu/PRKD1 = target: T12, PKCmu/PRKD1 (Homo sapiens, UniProt Q15139); test: Kinase screening, HotSpot assay (Reaction Biology); format: biochemical
T12 construct: purchased Reaction Biology Corporation
Description: as §1

JAK2 = target: T13, JAK2 (Homo sapiens, UniProt O60674); test: Kinase screening, HotSpot assay (Reaction Biology); format: biochemical
T13 construct: purchased Reaction Biology Corporation
Description: as §1

mLK1/MAP3K9 = target: T14, mLK1/MAP3K9 (Homo sapiens, UniProt P80192); test: Kinase screening, HotSpot assay (Reaction Biology); format: biochemical
T14 construct: purchased Reaction Biology Corporation
Description: as §1

AXL(R499C) = target: T15, AXL(R499C) (Homo sapiens, UniProt P30530, R499C); test: Kinase screening, HotSpot assay (Reaction Biology); format: biochemical
T15 construct: purchased Reaction Biology Corporation
Description: as §1

AXL = target: T16, AXL (Homo sapiens, UniProt P30530); test: Kinase screening, HotSpot assay (Reaction Biology); format: biochemical
T16 construct: purchased Reaction Biology Corporation
Description: as §1

ARK5/NUAK1 [2] = target: T9, ARK5/NUAK1; settings: comparative values quoted in text, source not stated; read-out: ARK5/NUAK1 IC50 of comparative compounds; cited from earlier work
CYP 2C19 = CYP 2C19 (Homo sapiens, UniProt P33261); test: CYP450 assay (luminescence); format: in vitro ADME; settings: control compound at 100 μM, read-out: inhibitory activity against human CYP 2C19
Description: The resulting substance was reacted with NADPH for 20 minutes at 37° C. and a detection reagent was added to terminate the reaction. After stabilization at room temperature for 20 minutes, a luminescence signal was measured.

CYP 3A4 = CYP 3A4 (Homo sapiens, UniProt P08684); test: CYP450 assay (luminescence); format: in vitro ADME; settings: compound at 10 μM, read-out: inhibitory activity against human CYP 3A4
Description: (§2) Compound 5 and a positive control stock solution were diluted with water to prepare a 40 μM working solution, and a solution containing an enzyme and a substrate was prepared using water and buffer. Compound 5/control/positive control and the solution were each dispensed on a 96-well and preincubated at 37° C. for 10 minutes. The resulting substance was reacted with NADPH for 20 minutes at 37° C. and a detection reagent was added to terminate the reaction. After stabilization at room temperature for 20 minutes, a luminescence signal was measured.

CYP 1A2 = CYP 1A2 (Homo sapiens, UniProt P05177); test: CYP450 assay (luminescence); format: in vitro ADME; settings: compound at 10 μM
Description: as §2

T10 sequence (O60674 whole entry V617F): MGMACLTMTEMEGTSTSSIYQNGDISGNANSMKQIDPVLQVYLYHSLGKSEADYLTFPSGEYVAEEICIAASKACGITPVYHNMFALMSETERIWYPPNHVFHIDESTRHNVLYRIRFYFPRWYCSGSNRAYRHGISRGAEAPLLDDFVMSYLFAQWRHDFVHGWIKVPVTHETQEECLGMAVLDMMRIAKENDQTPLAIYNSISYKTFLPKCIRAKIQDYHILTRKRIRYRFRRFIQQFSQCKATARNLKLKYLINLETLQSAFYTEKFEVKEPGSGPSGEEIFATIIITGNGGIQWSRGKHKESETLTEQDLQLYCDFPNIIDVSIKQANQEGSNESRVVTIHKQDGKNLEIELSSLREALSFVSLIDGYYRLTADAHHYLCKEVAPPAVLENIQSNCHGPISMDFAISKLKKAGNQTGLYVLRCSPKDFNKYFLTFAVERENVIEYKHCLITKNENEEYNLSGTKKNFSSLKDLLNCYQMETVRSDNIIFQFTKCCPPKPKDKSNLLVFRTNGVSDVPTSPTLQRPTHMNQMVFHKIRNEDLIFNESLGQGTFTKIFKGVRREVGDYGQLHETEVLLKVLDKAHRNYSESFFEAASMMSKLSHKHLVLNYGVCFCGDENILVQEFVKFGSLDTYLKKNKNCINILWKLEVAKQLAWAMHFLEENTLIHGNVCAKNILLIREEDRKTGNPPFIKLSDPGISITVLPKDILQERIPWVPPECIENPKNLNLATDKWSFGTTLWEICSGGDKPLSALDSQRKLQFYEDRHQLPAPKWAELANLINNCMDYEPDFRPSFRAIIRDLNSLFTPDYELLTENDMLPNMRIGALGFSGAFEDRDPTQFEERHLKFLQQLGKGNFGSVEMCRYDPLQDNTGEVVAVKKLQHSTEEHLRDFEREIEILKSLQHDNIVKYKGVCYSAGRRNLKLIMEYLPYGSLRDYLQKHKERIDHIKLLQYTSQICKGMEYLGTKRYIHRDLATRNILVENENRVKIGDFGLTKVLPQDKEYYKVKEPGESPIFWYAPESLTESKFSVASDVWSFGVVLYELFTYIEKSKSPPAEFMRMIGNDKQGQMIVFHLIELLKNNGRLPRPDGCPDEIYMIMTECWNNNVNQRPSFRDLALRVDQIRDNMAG
T2 sequence (P23458 whole entry): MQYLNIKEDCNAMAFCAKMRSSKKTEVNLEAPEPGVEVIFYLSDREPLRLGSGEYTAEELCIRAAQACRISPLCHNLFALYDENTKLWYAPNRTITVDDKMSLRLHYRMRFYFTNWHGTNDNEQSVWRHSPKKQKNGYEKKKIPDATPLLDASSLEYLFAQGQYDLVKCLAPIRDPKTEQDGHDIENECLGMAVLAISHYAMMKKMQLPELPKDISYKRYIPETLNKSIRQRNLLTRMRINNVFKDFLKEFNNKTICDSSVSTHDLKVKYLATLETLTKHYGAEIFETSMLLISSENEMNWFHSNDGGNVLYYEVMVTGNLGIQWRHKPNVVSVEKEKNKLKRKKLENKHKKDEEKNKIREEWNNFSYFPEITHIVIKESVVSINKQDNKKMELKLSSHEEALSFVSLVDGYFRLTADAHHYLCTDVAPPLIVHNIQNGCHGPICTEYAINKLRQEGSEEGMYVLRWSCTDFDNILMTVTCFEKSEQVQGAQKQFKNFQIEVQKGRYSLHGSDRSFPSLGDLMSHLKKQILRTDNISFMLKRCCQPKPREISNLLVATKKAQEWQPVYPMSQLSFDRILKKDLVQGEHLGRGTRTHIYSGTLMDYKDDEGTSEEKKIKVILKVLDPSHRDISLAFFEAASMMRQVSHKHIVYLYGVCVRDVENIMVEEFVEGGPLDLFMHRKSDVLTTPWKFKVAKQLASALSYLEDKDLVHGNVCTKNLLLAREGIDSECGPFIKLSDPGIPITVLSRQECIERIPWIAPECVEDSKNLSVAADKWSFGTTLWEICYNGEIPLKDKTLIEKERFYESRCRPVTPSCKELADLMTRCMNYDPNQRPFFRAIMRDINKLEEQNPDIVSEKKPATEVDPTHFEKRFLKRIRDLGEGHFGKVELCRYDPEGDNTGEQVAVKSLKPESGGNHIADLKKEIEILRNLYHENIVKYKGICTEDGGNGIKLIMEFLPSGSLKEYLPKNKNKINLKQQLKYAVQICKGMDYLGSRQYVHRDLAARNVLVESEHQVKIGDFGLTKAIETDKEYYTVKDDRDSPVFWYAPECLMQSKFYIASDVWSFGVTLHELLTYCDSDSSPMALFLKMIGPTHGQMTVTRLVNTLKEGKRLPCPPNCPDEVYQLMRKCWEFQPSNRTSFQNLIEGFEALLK
T13 sequence (O60674 whole entry): as the sequence (O60674 whole entry V617F) above, with F617V counted along it
T11 sequence (Q07912 whole entry): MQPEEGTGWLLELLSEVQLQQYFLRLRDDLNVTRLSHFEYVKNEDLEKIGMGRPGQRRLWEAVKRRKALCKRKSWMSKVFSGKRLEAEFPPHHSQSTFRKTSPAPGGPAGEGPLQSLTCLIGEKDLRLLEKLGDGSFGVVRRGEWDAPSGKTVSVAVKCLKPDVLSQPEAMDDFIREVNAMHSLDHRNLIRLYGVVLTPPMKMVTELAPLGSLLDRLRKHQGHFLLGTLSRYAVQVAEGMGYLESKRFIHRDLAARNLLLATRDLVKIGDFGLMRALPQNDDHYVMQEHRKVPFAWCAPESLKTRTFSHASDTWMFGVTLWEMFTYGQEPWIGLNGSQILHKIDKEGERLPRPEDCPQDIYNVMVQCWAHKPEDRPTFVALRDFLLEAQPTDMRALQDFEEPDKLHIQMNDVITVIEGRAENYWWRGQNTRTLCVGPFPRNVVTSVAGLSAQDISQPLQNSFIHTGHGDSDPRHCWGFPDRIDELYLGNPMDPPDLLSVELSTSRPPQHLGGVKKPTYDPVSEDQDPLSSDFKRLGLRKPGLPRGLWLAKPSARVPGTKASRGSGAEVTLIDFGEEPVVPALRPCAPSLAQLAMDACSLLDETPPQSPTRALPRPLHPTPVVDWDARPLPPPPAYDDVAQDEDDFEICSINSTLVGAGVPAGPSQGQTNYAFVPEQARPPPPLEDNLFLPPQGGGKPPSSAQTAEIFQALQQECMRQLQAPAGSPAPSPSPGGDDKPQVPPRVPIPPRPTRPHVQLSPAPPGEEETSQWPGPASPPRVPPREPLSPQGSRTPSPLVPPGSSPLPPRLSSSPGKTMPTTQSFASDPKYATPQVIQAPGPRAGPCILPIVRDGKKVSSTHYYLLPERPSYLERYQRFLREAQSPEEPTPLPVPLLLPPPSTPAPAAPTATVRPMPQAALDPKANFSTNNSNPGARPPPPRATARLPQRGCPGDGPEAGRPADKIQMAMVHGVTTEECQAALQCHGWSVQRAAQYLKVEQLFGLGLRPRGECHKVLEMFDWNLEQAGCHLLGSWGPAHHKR
T14 sequence (P80192 whole entry): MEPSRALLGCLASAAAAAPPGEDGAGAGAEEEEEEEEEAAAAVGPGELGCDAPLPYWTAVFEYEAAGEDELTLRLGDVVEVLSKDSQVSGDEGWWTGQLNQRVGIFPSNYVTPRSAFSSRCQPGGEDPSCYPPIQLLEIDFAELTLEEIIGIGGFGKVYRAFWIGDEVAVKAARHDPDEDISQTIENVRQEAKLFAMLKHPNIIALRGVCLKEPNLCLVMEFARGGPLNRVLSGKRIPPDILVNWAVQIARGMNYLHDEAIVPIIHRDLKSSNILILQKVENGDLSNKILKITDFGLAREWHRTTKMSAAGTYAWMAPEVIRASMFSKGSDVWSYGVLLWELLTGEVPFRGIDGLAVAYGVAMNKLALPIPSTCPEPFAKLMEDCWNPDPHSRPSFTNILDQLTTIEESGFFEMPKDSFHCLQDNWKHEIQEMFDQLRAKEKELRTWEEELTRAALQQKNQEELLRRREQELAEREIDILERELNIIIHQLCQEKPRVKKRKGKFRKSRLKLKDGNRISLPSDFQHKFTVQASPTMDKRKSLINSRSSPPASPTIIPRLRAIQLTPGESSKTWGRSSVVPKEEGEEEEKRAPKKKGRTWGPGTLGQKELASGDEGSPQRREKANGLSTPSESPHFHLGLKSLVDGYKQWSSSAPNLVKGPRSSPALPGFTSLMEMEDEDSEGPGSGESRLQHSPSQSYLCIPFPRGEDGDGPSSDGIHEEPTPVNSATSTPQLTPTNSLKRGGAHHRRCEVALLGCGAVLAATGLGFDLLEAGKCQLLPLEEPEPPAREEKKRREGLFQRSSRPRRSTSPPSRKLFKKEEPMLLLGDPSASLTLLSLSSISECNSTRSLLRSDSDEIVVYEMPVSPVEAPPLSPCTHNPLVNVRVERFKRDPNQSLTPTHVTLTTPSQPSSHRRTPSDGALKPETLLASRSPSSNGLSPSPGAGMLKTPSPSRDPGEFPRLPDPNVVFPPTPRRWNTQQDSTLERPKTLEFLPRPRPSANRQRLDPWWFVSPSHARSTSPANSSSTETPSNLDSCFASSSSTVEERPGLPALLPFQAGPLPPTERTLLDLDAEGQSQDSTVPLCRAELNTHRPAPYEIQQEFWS
Chain of CYP 3A4 (P08684 whole entry): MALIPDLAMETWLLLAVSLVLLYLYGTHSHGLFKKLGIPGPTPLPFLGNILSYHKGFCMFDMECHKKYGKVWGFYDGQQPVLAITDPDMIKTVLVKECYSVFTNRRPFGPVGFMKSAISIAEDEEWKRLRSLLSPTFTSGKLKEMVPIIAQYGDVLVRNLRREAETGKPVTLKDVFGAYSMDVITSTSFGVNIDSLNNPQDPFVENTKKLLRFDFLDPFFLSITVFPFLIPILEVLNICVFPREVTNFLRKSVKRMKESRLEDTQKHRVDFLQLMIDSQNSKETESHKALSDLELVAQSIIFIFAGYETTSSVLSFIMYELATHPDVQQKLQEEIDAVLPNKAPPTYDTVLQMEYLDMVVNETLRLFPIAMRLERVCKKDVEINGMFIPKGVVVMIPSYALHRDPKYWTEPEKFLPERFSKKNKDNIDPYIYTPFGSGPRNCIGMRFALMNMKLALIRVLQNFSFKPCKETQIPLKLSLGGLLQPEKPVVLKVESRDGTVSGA

## Cc1cnc(Nc2ccc(OCCN3CCCC3)cc2)nc1NCc1ccco1 [Compound 1, 4-(furan-2-yl)methylamino-5-methyl-2-[4-{2-(pyrrolidin-1-yl)ethoxy}phenylamino]pyrimidine]
K-562 cell line
  IC50: 5100 nM
Ba/F3 parental
  GI50: 1790 nM
FLT3
  IC50: 10.3 nM
MV-4-11 cells
  IC50: 65.9 nM
Ba/F3 FLT3-ITD
  GI50: 92 nM
JAK1
  IC50: 50 nM
SIK2
  IC50: 105 nM
c-MER
  IC50: 14300 nM
RET
  IC50: 488 nM
JAK3
  IC50: 207 nM
TYRO3/SKY
  IC50: 10700 nM
LRRK2
  IC50: 113 nM
ARK5/NUAK1 [1]
  IC50: 5.9 nM
JAK2(V617F)
  IC50: 95.2 nM
ACK1
  IC50: 38.8 nM
PKCmu/PRKD1
  IC50: 167 nM
JAK2
  IC50: 50.1 nM
mLK1/MAP3K9
  IC50: 148 nM
AXL(R499C)
  IC50: 207 nM
AXL
  IC50: 443 nM

## Fc1cnc(Nc2ccc(OCCN3CCCC3)cc2)nc1NCc1ccco1 [Compound 20, 4-(furan-2-yl) methylamino-5-fluoro-2-[4-{2-(pyrrolidin-1-yl)ethoxy}phenylamino]pyrimidine]
Ba/F3 parental
  GI50: 6670 nM
FLT3
  IC50: 22 nM
Ba/F3 FLT3-ITD
  GI50: 178 nM
JAK1
  IC50: 177 nM
ARK5/NUAK1 [1]
  IC50: 52.3 nM
JAK2(V617F)
  IC50: 238 nM
ACK1
  IC50: 101 nM
JAK2
  IC50: 99.1 nM

## FC(F)(F)c1cnc(Nc2ccc(OCCN3CCCC3)cc2)nc1NCc1ccco1 [Compound 21, 4-(furan-2-yl) methylamino-5-trifluoromethyl-2-[4-{2-(pyrrolidin-1-yl)ethoxy}phenylamino]pyrimidine]
Ba/F3 parental
  GI50: 8060 nM
Ba/F3 FLT3-ITD
  GI50: 558 nM

## Cc1nc(Nc2cnn(C3CCNCC3)c2)nc2c1N(C)C(=O)c1cc3ccccc3cc1N2C [HTH-01-015]
ARK5/NUAK1 [2]
  IC50: 100 nM

## CN(C)CCC=C1c2ccccc2CCc2ccccc21 [amitriptyline, reference compound]
CYP 2C19
  inhibition at 20 min, 100 µM: 88%

## CC(=O)N1CCN(c2ccc(OCC3COC(Cn4ccnc4)(c4ccc(Cl)cc4Cl)O3)cc2)CC1 (stereo not shown) [ketoconazole, reference compound]
CYP 3A4
  inhibition at 20 min, 10 µM: 98.7%

## αα-naphthoflavone [reference compound]
CYP 1A2
  inhibitory activity against human CYP 1A2: 97.7
